The text below walks through data of publication PMC5908784, “Extracellular loops 2 and 3 of the calcitonin receptor selectively modify agonist binding and efficacy” (Biochemical Pharmacology, 2018).

Where a chain is given by its changes, count along the chain named. Where a SMILES comes first, the peptide text is derived from it. Bridges are numbered along the chain shown (N, C = ends).

Experiment in all cases: IP1 accumulation
What all share (format): cell-based
Settings in all cases: mean ± S.E.M.; for Emax: IP1 maximal response, SEM

The target of experiment [1] is T1, hCTR M376A (Homo sapiens, UniProt P30988, M376A).
T1 construct: c-Myc (N); expressed in transfected cells
T1 sequence (P30988 25-474 M376A): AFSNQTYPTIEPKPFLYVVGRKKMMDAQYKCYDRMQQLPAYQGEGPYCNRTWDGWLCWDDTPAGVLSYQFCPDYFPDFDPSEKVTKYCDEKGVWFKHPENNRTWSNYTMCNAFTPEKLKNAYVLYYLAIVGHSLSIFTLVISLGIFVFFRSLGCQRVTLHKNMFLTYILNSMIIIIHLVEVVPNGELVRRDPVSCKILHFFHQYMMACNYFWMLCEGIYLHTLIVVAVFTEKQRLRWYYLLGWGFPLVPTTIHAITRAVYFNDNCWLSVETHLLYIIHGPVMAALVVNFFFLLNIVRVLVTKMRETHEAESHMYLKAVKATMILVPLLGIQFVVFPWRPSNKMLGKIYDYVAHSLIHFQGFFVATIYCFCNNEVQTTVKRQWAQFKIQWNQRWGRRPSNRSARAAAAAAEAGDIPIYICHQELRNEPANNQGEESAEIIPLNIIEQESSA
As to the method:
(§1) Cells (2.5 × 10^4 cells/well) were plated into 96 well trays and cultured overnight. Cells were stimulated with increasing concentration of ligands for 60 min in the presence of LiCl. Samples were lysed and endogenous IP1 was measured using an IP-One HTRF® assay kit (CisBio) as specified by the manufacturer. Data were normalized to the maximal response elicited by 100 μM of ATP.
(§2) Data were corrected for radioligand occupancy using the Cheng-Prusoff equation in Prism; as such data are reported as pKi. Emax and EC50 were estimated from concentration-response curves using with a 3-parameter logistic equation in Prism (v7). These values are a composite of functional affinity, efficacy and stimulus response coupling. […] Significance was accepted at P < 0.05.

In experiment [2] the target is T2, hCTR D373A (Homo sapiens, UniProt P30988, D373A).
T2 construct: c-Myc (N); expressed in transfected cells
T2 sequence (P30988 25-474 D373A): T1 sequence (P30988 25-474 M376A) with D349A, A352M
The method, then:
as §1, §2

For experiment [3], the target named is T3, hCTR R281A (Homo sapiens, UniProt P30988, R281A).
T3 construct: expressed in transfected cells
T3 sequence (P30988 25-474 R281A): T1 sequence (P30988 25-474 M376A) with R257A, A352M
The method, then:
as §1, §2

In experiment [4] the target is T4, hCTR N365A (Homo sapiens, UniProt P30988, N365A).
T4 construct: c-Myc (N); expressed in transfected cells
T4 sequence (P30988 25-474 N365A): T1 sequence (P30988 25-474 M376A) with N341A, A352M
The method, then:
as §1, §2

Experiment [5] addresses T5, hCTR M367A (Homo sapiens, UniProt P30988, M367A).
T5 construct: c-Myc (N); expressed in transfected cells
T5 sequence (P30988 25-474 M367A): T1 sequence (P30988 25-474 M376A) with M343A, A352M
As to the method: as §1, §2

The mark [6] stands for this setting: IP1, CV1-FlpIn cells, 60 min, LiCl.

Turning to `CC[C@H](C)[C@H](NC(=O)[C@H](C)NC(=O)[C@@H](NC(=O)[C@H](CCC(N)=O)NC(=O)[C@@H]1CCCN1C(=O)[C@H](Cc1ccccc1)NC(=O)[C@@H](NC(=O)[C@H](Cc1c[nH]cn1)NC(=O)[C@H](Cc1ccccc1)NC(=O)[C@H](CCCCN)NC(=O)[C@H](CC(N)=O)NC(=O)[C@H](Cc1ccccc1)NC(=O)[C@H](CC(=O)O)NC(=O)[C@H](CCC(N)=O)NC(=O)[C@@H](NC(=O)[C@H](Cc1ccc(O)cc1)NC(=O)[C@@H](NC(=O)CNC(=O)[C@H](CC(C)C)NC(=O)[C@H](CCSC)NC(=O)[C@@H]1CSSC[C@H](N)C(=O)NCC(=O)N[C@@H](CC(N)=O)C(=O)N[C@@H](CC(C)C)C(=O)N[C@@H](CO)C(=O)N[C@@H]([C@@H](C)O)C(=O)N1)[C@@H](C)O)[C@@H](C)O)[C@@H](C)O)[C@@H](C)O)C(=O)NCC(=O)N[C@H](C(=O)NCC(=O)N[C@@H](C)C(=O)N1CCC[C@H]1C(N)=O)C(C)C` [hCT], the Emax (usually the size of the effect at its maximum, as opposed to the concentration needed) in experiment [1] turned out to be 52 ± 5%; in experiment [2], 102 ± 10%; in experiment [3], 30 ± 4%; in experiment [4], 81 ± 6%; in experiment [5], 149 ± 8%.
Regarding `CSCC[C@H](NC(=O)CNC(=O)[C@H](CO)NC(=O)[C@H](Cc1ccccc1)NC(=O)[C@H](CCCNC(=N)N)NC(=O)[C@H](Cc1c[nH]cn1)NC(=O)[C@H](Cc1ccccc1)NC(=O)[C@H](CC(N)=O)NC(=O)[C@H](CC(N)=O)NC(=O)[C@H](CC(C)C)NC(=O)[C@H](CC(N)=O)NC(=O)[C@H](CCCNC(=N)N)NC(=O)[C@H](Cc1c[nH]c2ccccc12)NC(=O)[C@H](Cc1ccc(O)cc1)NC(=O)[C@H](C)NC(=O)[C@H](CO)NC(=O)[C@H](CC(C)C)NC(=O)[C@@H](NC(=O)[C@@H]1CSSC[C@H](N)C(=O)N[C@@H](CO)C(=O)N[C@@H](CC(N)=O)C(=O)N[C@@H](CC(C)C)C(=O)N[C@@H](CO)C(=O)N[C@@H]([C@@H](C)O)C(=O)N1)C(C)C)C(=O)NCC(=O)N[C@@H](Cc1ccccc1)C(=O)NCC(=O)N1CCC[C@H]1C(=O)N[C@@H](CCC(=O)O)C(=O)N[C@H](C(=O)N1CCC[C@H]1C(N)=O)[C@@H](C)O` [pCT] (H-CSNLSTCVLSAYWRNLNNFHRFSGMGFGPETP-NH2; disulfide 1-7), the EC50 (in general, the concentration needed to bring the measured effect to its halfway point) in experiment [1] (setting [6]) was 5.62 nM; in experiment [2] (setting [6]), 14.8 nM; in experiment [3] (setting [6]) it was 2.24 nM; in experiment [4] (setting [6]), 2.24 nM; in experiment [5] (setting [6]), 5.13 nM. Besides, the Emax in experiment [1] was found to be 47 ± 4%; in experiment [2] it was 46 ± 3%; in experiment [3], 52 ± 4%; in experiment [4], 68 ± 6%; in experiment [5], 101 ± 8%.
With `CC(C)C[C@H](NC(=O)[C@H](CCCCN)NC(=O)CNC(=O)[C@H](CC(C)C)NC(=O)[C@@H](NC(=O)[C@@H]1CSSC[C@H](N)C(=O)N[C@@H](CO)C(=O)N[C@@H](CC(N)=O)C(=O)N[C@@H](CC(C)C)C(=O)N[C@@H](CO)C(=O)N[C@@H]([C@@H](C)O)C(=O)N1)C(C)C)C(=O)N[C@@H](CO)C(=O)N[C@@H](CCC(N)=O)C(=O)N[C@@H](CCC(=O)O)C(=O)N[C@@H](CC(C)C)C(=O)N[C@@H](Cc1c[nH]cn1)C(=O)N[C@@H](CCCCN)C(=O)N[C@@H](CC(C)C)C(=O)N[C@@H](CCC(N)=O)C(=O)N[C@H](C(=O)N[C@@H](Cc1ccc(O)cc1)C(=O)N1CCC[C@H]1C(=O)N[C@@H](CCCNC(=N)N)C(=O)N[C@H](C(=O)N[C@@H](CC(N)=O)C(=O)N[C@H](C(=O)NCC(=O)N[C@@H](CO)C(=O)NCC(=O)N[C@H](C(=O)N1CCC[C@H]1C(N)=O)[C@@H](C)O)[C@@H](C)O)[C@@H](C)O)[C@@H](C)O` [sCT], the Emax in experiment [1] was found to be 95 ± 4%; in experiment [2], 78 ± 6%; in experiment [3] it was 91 ± 6%; in experiment [4], 66 ± 4%; in experiment [5], 123 ± 6%.
